“Also recorded” adds a separate entry of the source.
Experiments:
Format in all cases: cell-based, human
GS249NS = assay: DBD combination treatment, viability enhancement factor; conditions: GS249NS (p17), labelled therapy combined with crystalline DBD polymorph
Protocol: (§1) Crystalline DBD polymorph treatment was combined with chemotherapy, radiotherapy and targeted inhibitors to determine whether the crystalline DBD polymorph form could: enhance efficacy of the conventional therapies; enhance efficacy when combined with newer ‘targeted’ therapies; or would make (a subset of) cultures more sensitive to this treatment.
(§2) Therefore, cultures were treated with: • a.

GS289NS = assay: as above; conditions: GS289NS (p15 + p16), labelled therapy combined with crystalline DBD polymorph;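 also: DBD at its own IC50 and half IC50 determined at Day 5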
Protocol: as §1, §2

GS279coreNS = assay: as above; conditions: Day 5; GS279coreNS (p12 + p13); labelled therapy combined with crystalline DBD polymorph
Protocol: as §1, §2

GS279periNS = assay: as above; conditions: GS279periNS (p16 + p15), labelled therapy combined with crystalline DBD polymorph;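 also: DBD at its own IC50 and half IC50 determined at Day 5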
Protocol: as §1, §2

GS323periNS = assay: as above; conditions: Day 5; GS323periNS (p20 + p19); labelled therapy combined with crystalline DBD polymorph
Protocol: as §1, §2

GS184NS = assay: as above; conditions: GS184NS (p18 + p19), labelled therapy combined with crystalline DBD polymorph;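 also: DBD at its own IC50 and half IC50 determined at Day 5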
Protocol: as §1, §2

GS365NS = assay: as above; conditions: GS365NS (p17 + p16), labelled therapy combined with crystalline DBD polymorph
Protocol: as §1, §2

GS359NS = assay: as above; conditions: GS359NS (p15 + p14), labelled therapy combined with crystalline DBD polymorph
Protocol: as §1, §2

GS245NS = assay: as above; conditions: GS245NS (p16 + p15), labelled therapy combined with crystalline DBD polymorph
Protocol: as §1, §2

GS203NS = assay: as above; conditions: GS203NS (P19 + p18), labelled therapy combined with crystalline DBD polymorph
Protocol: as §1, §2

GS261NS = assay: as above; conditions: GS261NS (p13), labelled therapy combined with crystalline DBD polymorph
Protocol: as §1, §2

GS281NS = assay: as above; conditions: GS281NS (p15), labelled therapy combined with crystalline DBD polymorph
Protocol: as §1, §2

GS257NS = assay: as above; conditions: GS257NS (p16 + p17), labelled therapy combined with crystalline DBD polymorph;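 also: DBD at its own IC50 and half IC50 determined at Day 5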
Protocol: as §1, §2

GS186coreNS = assay: as above; conditions: GS186coreNS (p18), labelled therapy combined with crystalline DBD polymorph
Protocol: as §1, §2

GS102periNS = assay: as above; conditions: GS102periNS (p20 + p21), labelled therapy combined with crystalline DBD polymorph
Protocol: as §1, §2

GS324coreNS = assay: as above; conditions: GS324coreNS (p19), labelled therapy combined with crystalline DBD polymorph
Protocol: as §1, §2

GS104periNS = assay: as above; conditions: GS104periNS (p21 + p22), labelled therapy combined with crystalline DBD polymorph
Protocol: as §1, §2

GS224NS = assay: as above; conditions: GS224NS (p17), labelled therapy combined with crystalline DBD polymorph
Protocol: as §1, §2

GS186periNS = assay: as above; conditions: GS186periNS (p15), labelled therapy combined with crystalline DBD polymorph
Protocol: as §1, §2

GS304NS = assay: as above; conditions: GS304NS (p16), labelled therapy combined with crystalline DBD polymorph
Protocol: as §1, §2

[1] = test system: panel of 20 patient derived cell cultures; assay: DBD combination treatment, overall result over the panel; conditions: Tables 2 and 3, day 5 and day 8, all cultures
Protocol: as §1, §2

Cn1nnc2c(C(N)=O)ncn2c1=O [TMZ, Temozolomide]
enhancement factor (viability % of most effective monotherapy divided by viability % of combination) (GS249NS; Day 5): 1.602 | enhancement factor (viability % of most effective monotherapy divided by viability % of combination) (GS289NS; Day 5): 1.376 | enhancement factor (viability % of most effective monotherapy divided by viability % of combination) (GS289NS; Day 8): 1.032 | enhancement factor (viability % of most effective monotherapy divided by viability % of combination) (GS279coreNS): 1.440 | enhancement factor (viability % of most effective monotherapy divided by viability % of combination) (GS279periNS; Day 5): 1.162 | enhancement factor (viability % of most effective monotherapy divided by viability % of combination) (GS279periNS; Day 8): 1.129 | enhancement factor (viability % of most effective monotherapy divided by viability % of combination) (GS323periNS): 1.553 | enhancement factor (viability % of most effective monotherapy divided by viability % of combination) (GS184NS; Day 5): 1.362 | enhancement factor (viability % of most effective monotherapy divided by viability % of combination) (GS184NS; Day 8): 1.531 | enhancement factor (viability % of most effective monotherapy divided by viability % of combination) (GS365NS; Day 5): 1.156 | enhancement factor (viability % of most effective monotherapy divided by viability % of combination) (GS365NS; Day 8): 1.019 | enhancement factor (viability % of most effective monotherapy divided by viability % of combination) (GS359NS; Day 5): 1.830 | enhancement factor (viability % of most effective monotherapy divided by viability % of combination) (GS359NS; Day 8): 1.700 | enhancement factor (viability % of most effective monotherapy divided by viability % of combination) (GS245NS; Day 5): 1.099 | enhancement factor (viability % of most effective monotherapy divided by viability % of combination) (GS245NS; Day 8): 1.088 | enhancement factor (viability % of most effective monotherapy divided by viability % of combination) (GS203NS; Day 5): 1.055 | enhancement factor (viability % of most effective monotherapy divided by viability % of combination) (GS203NS; Day 8): 1.159 | enhancement factor (viability % of most effective monotherapy divided by viability % of combination) (GS261NS; Day 5): 1.271 | enhancement factor (viability % of most effective monotherapy divided by viability % of combination) (GS261NS; Day 8): 1.462 | enhancement factor (viability % of most effective monotherapy divided by viability % of combination) (GS281NS; Day 5): 1.264 | enhancement factor (viability % of most effective monotherapy divided by viability % of combination) (GS281NS; Day 8): 1.161 | enhancement factor (viability % of most effective monotherapy divided by viability % of combination) (GS257NS; Day 5): 1.005 | enhancement factor (viability % of most effective monotherapy divided by viability % of combination) (GS257NS; Day 8): 0.858 | enhancement factor (viability % of most effective monotherapy divided by viability % of combination) (GS186coreNS; Day 5): 1.751 | enhancement factor (viability % of most effective monotherapy divided by viability % of combination) (GS186coreNS; Day 8): 2.029 | enhancement factor (viability % of most effective monotherapy divided by viability % of combination) (GS102periNS; Day 5): 1.268 | enhancement factor (viability % of most effective monotherapy divided by viability % of combination) (GS102periNS; Day 8): 1.309 | enhancement factor (viability % of most effective monotherapy divided by viability % of combination) (GS324coreNS; Day 5): 1.700 | enhancement factor (viability % of most effective monotherapy divided by viability % of combination) (GS324coreNS; Day 8): 1.377 | enhancement factor (viability % of most effective monotherapy divided by viability % of combination) (GS104periNS; Day 5): 1.101 | enhancement factor (viability % of most effective monotherapy divided by viability % of combination) (GS104periNS; Day 8): 0.987 | enhancement factor (viability % of most effective monotherapy divided by viability % of combination) (GS224NS; Day 5): 1.335 | enhancement factor (viability % of most effective monotherapy divided by viability % of combination) (GS224NS; Day 8): 1.470 | enhancement factor (viability % of most effective monotherapy divided by viability % of combination) (GS186periNS; Day 5): 2.167 | enhancement factor (viability % of most effective monotherapy divided by viability % of combination) (GS186periNS; Day 8): 1.220 | enhancement factor (viability % of most effective monotherapy divided by viability % of combination) (GS304NS; Day 5): 1.147 | enhancement factor (viability % of most effective monotherapy divided by viability % of combination) (GS304NS; Day 8): 1.134

Cc1ccc(NC(=O)c2ccc(CN3CCN(C)CC3)cc2)cc1Nc1nccc(-c2cccnc2)n1 [Imatinib]
enhancement factors overall, in combination with DBD [1]: highest enhancement factors; also recorded: high enhancement factor, most cases

Cc1[nH]c2ccccc2c1CCNCc1ccc(/C=C/C(=O)NO)cc1 [Panobinostat]
enhancement factor (viability % of most effective monotherapy divided by viability % of combination) (GS249NS; Day 5): 1.074 | enhancement factor (viability % of most effective monotherapy divided by viability % of combination) (GS249NS; Day 8): 0.944 | enhancement factor (viability % of most effective monotherapy divided by viability % of combination) (GS289NS; Day 5): 2.519 | enhancement factor (viability % of most effective monotherapy divided by viability % of combination) (GS289NS; Day 8): 3.535 | enhancement factor (viability % of most effective monotherapy divided by viability % of combination) (GS279coreNS): 5.962 | enhancement factor (viability % of most effective monotherapy divided by viability % of combination) (GS279periNS; Day 5): 1.943 | enhancement factor (viability % of most effective monotherapy divided by viability % of combination) (GS279periNS; Day 8): 5.488 | enhancement factor (viability % of most effective monotherapy divided by viability % of combination) (GS323periNS): 1.656 | enhancement factor (viability % of most effective monotherapy divided by viability % of combination) (GS184NS; Day 5): 1.712 | enhancement factor (viability % of most effective monotherapy divided by viability % of combination) (GS184NS; Day 8): 2.357 | enhancement factor (viability % of most effective monotherapy divided by viability % of combination) (GS365NS; Day 5): 2.914 | enhancement factor (viability % of most effective monotherapy divided by viability % of combination) (GS365NS; Day 8): 3.253 | enhancement factor (viability % of most effective monotherapy divided by viability % of combination) (GS359NS; Day 5): 4.343 | enhancement factor (viability % of most effective monotherapy divided by viability % of combination) (GS359NS; Day 8): 5.512 | enhancement factor (viability % of most effective monotherapy divided by viability % of combination) (GS245NS; Day 5): 1.129 | enhancement factor (viability % of most effective monotherapy divided by viability % of combination) (GS245NS; Day 8): 1.202 | enhancement factor (viability % of most effective monotherapy divided by viability % of combination) (GS203NS; Day 8): 1.651 | enhancement factor (viability % of most effective monotherapy divided by viability % of combination) (GS261NS; Day 5): 1.392 | enhancement factor (viability % of most effective monotherapy divided by viability % of combination) (GS261NS; Day 8): 2.253 | enhancement factor (viability % of most effective monotherapy divided by viability % of combination) (GS281NS; Day 5): 1.480 | enhancement factor (viability % of most effective monotherapy divided by viability % of combination) (GS281NS; Day 8): 4.353 | enhancement factor (viability % of most effective monotherapy divided by viability % of combination) (GS257NS; Day 5): 1.643 | enhancement factor (viability % of most effective monotherapy divided by viability % of combination) (GS257NS; Day 8): 1.590 | enhancement factor (viability % of most effective monotherapy divided by viability % of combination) (GS186coreNS; Day 5): 2.557 | enhancement factor (viability % of most effective monotherapy divided by viability % of combination) (GS186coreNS; Day 8): 5.363 | enhancement factor (viability % of most effective monotherapy divided by viability % of combination) (GS102periNS; Day 5): 1.591 | enhancement factor (viability % of most effective monotherapy divided by viability % of combination) (GS102periNS; Day 8): 3.863 | enhancement factor (viability % of most effective monotherapy divided by viability % of combination) (GS324coreNS; Day 5): 3.192 | enhancement factor (viability % of most effective monotherapy divided by viability % of combination) (GS324coreNS; Day 8): 9.253 | enhancement factor (viability % of most effective monotherapy divided by viability % of combination) (GS104periNS; Day 5): 1.339 | enhancement factor (viability % of most effective monotherapy divided by viability % of combination) (GS104periNS; Day 8): 1.796 | enhancement factor (viability % of most effective monotherapy divided by viability % of combination) (GS224NS; Day 5): 4.399 | enhancement factor (viability % of most effective monotherapy divided by viability % of combination) (GS224NS; Day 8): 7.387 | enhancement factor (viability % of most effective monotherapy divided by viability % of combination) (GS186periNS; Day 5): 2.105 | enhancement factor (viability % of most effective monotherapy divided by viability % of combination) (GS186periNS; Day 8): 8.116 | enhancement factor (viability % of most effective monotherapy divided by viability % of combination) (GS304NS; Day 5): 4.406 | enhancement factor (viability % of most effective monotherapy divided by viability % of combination) (GS304NS; Day 8): 5.405

— US20220142941A1, “COMBINATION THERAPEUTIC REGIMENS WITH 1,6-DIBROMO-1,6-DIDEOXY-DULCITOL” (Eleison Pharmaceuticals LLC, priority 2019, published 2022)
